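How tested: cells in 96-well plates exposed to compound for 48 hours at five concentrations. GI50: concentration for 50% inhibition of growth.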 The source made the active and inactive calls. No stated cut-off is given here; in the data, active = GI50 up to about 1.1 µM and inactive = higher.
How the values were obtained:
Assay in all cases: NCI anticancer screen, dose series, 48 h
A549 = system: A549
ACHN = system: ACHN
CAKI-1 = system: CAKI-1
COLO 205 = system: COLO 205
DU-145 = system: DU-145
HCT-116 = system: HCT-116
Hs-578T = system: Hs-578T
IGROV-1 = system: IGROV-1
KM12 = system: KM12
LOX IMVI = system: LOX IMVI
MDA-MB-231 = system: MDA-MB-231
Malme-3M = system: Malme-3M
NCI-H522 = system: NCI-H522
RXF 393 = system: RXF 393
SN12C = system: SN12C
SNB-19 = system: SNB-19
SR = system: SR
SW-620 = system: SW-620
UACC-257 = system: UACC-257
DLD-1 = system: DLD-1

SMILES | GI50 (A549) | GI50 (ACHN) | GI50 (CAKI-1) | GI50 (COLO 205) | GI50 (DU-145) | GI50 (HCT-116) | GI50 (Hs-578T) | GI50 (IGROV-1) | GI50 (KM12) | GI50 (LOX IMVI) | GI50 (MDA-MB-231) | GI50 (Malme-3M) | GI50 (NCI-H522) | GI50 (RXF 393) | GI50 (SN12C) | GI50 (SNB-19) | GI50 (SR) | GI50 (SW-620) | GI50 (UACC-257) | GI50 (DLD-1)
Cc1sc(C)c2c1C(=O)CC2N (stereo unspecified) | 29.3 µM (inactive) | 16.8 µM (inactive) | 15.1 µM (inactive) | 17.1 µM (inactive) | 15.9 µM (inactive) | 14.5 µM (inactive) | 44.8 µM (inactive) | 34.7 µM (inactive) | 16.4 µM (inactive) | 13.1 µM (inactive) | 22.7 µM (inactive) | 13.7 µM (inactive) | 3.3 µM (inactive) | 16.3 µM (inactive) | 24.2 µM (inactive) | > 94.4 µM (inactive) | 4.27 µM (inactive) | 6 µM (inactive) | 17.5 µM (inactive) | 
COC(=O)c1ccccc1CC1Cc2ccc3c(c2C1)CCC3 (stereo unspecified) | 30.3 µM (inactive) | 30.5 µM (inactive) | 45.5 µM (inactive) | 17.4 µM (inactive) | 45.1 µM (inactive) | 23.3 µM (inactive) | 37 µM (inactive) | 35.4 µM (inactive) | 30.1 µM (inactive) | 16 µM (inactive) | 19.5 µM (inactive) | 19.4 µM (inactive) | 17.7 µM (inactive) | 19.1 µM (inactive) | 39.6 µM (inactive) | 48.6 µM (inactive) | 5.38 µM (inactive) | 39.4 µM (inactive) | 10.4 µM (inactive) | 
O=[N+]([O-])c1cccc(C2N3CCCCC3[C@@H]3c4[nH]c5ccccc5c4CCN23)c1 (stereo partly specified) | 14 µM (inactive) | 15.9 µM (inactive) | 28.4 µM (inactive) | 13.2 µM (inactive) |  |  |  | 14.9 µM (inactive) |  |  |  | 2.55 µM (inactive) |  | 5.86 µM (inactive) | 14.5 µM (inactive) | 19.7 µM (inactive) |  | 20 µM (inactive) | 14 µM (inactive) | 12.3 µM (inactive)
CCC1CN2CCc3c([nH]c4ccccc34)[C@@](C(=O)OC)(c3cc4c(cc3OC)N(C)C3C(O)(C(=O)OC)C(C(=O)OC)C5(CC)C=CCN6CCC43C65)C[C@@H](C2)[C@@H]1C(C)(C)C (stereo partly specified) | 0.649 µM (active) | 0.6 µM (active) | 4.27 µM (inactive) | 0.372 µM (active) | 0.342 µM (active) | 0.312 µM (active) | 0.463 µM (active) | 0.668 µM (active) | 0.419 µM (active) | 0.34 µM (active) | 0.407 µM (active) | 0.486 µM (active) | 0.292 µM (active) | 0.285 µM (active) | 0.607 µM (active) | 0.337 µM (active) | 0.473 µM (active) | 0.33 µM (active) | 0.514 µM (active) | 
C[n+]1ccc(/C2=C3\C=CC(=N3)/C(c3cc[n+](C)cc3)=c3/cc/c([nH]3)=C(\c3cc[n+](C)cc3)C3=N/C(=C(/c4cc[n+](C)cc4)C4C=CC2N4)C=C3)cc1 | 80.2 µM (inactive) | > 100 µM (inactive) | > 100 µM (inactive) | > 100 µM (inactive) | > 100 µM (inactive) | > 81.1 µM (inactive) | > 80 µM (inactive) | 71.4 µM (inactive) | 35.9 µM (inactive) | > 100 µM (inactive) | > 100 µM (inactive) | > 100 µM (inactive) | > 100 µM (inactive) | > 91.4 µM (inactive) | > 100 µM (inactive) | > 100 µM (inactive) | 7.73 µM (inactive) | > 100 µM (inactive) | > 48.5 µM (inactive) | 
COC(=O)c1cc(C(=CCC[C@H]2CC[C@@]3(C)C(CCC4C3CC[C@@]3(C)C4CC[C@@H]3C(C)CCCC(C)C)C2)c2cc(Cl)c(O)c(C(=O)OC)c2)cc(Cl)c1O (stereo partly specified) | > 10 µM (inactive) | > 10 µM (inactive) | > 10 µM (inactive) | > 10 µM (inactive) | > 10 µM (inactive) | > 10 µM (inactive) | > 10 µM (inactive) | > 10 µM (inactive) | > 10 µM (inactive) | > 10 µM (inactive) | > 10 µM (inactive) | > 10 µM (inactive) | > 10 µM (inactive) | > 10 µM (inactive) | > 10 µM (inactive) | > 10 µM (inactive) | > 10 µM (inactive) | > 10 µM (inactive) | > 10 µM (inactive) | 
NCCNCCNc1ccc(NCCNCCN)c2c1C(=O)c1c(O)ccc(O)c1C2=O | > 100 µM (inactive) | > 100 µM (inactive) | > 100 µM (inactive) | > 100 µM (inactive) | > 100 µM (inactive) | > 100 µM (inactive) | 68.7 µM (inactive) | > 100 µM (inactive) | > 100 µM (inactive) | > 100 µM (inactive) | > 100 µM (inactive) | > 100 µM (inactive) | > 100 µM (inactive) | > 100 µM (inactive) | > 100 µM (inactive) | > 100 µM (inactive) | 2.21 µM (inactive) | > 100 µM (inactive) | > 100 µM (inactive) | 
